Experimental data from patent US10081635B2, “Substituted N-(pyrrolidine-3-yl)-7H-pyrrolo[2,3-D]pyrimidine-4-amine as janus kinase inhibitor” (YANG JI CHEMICAL CO., LTD., priority 2014, dated 2018).

Columns and labels:
Type in all cases: biochemical
Human TYK2 = Human TYK2 (Homo sapiens (Human), UniProt P29597); assay: In vitro kinase inhibition test, TYK2 (33P-ATP filter scintillation); conditions: compound at 1 uM; read-out: TYK2 kinase-phosphorylation inhibitory level (% inhibition)
Procedure: (§1) 1. In Vitro Kinase Inhibition Test
(§2) Kinases used were human-derived JAK1, JAK2, JAK3, and TYK2 (Millipore, Germany). Each of these kinases was diluted with a suitable buffer solution as described below, and then mixed with reagents.
(§3) 3-morpholinopropane-1-sulfonic acid (MOPS) and EDTA were dissolved in distilled water at a concentration of 20 mM and 1 mM, respectively, and 100 uL of β-mercaptoethanol, 10 uL of Brij-35™, 5 mL of glycerol, and 100 mg of bovine serum albumin (BSA), each per 100 mL of the solution, were added to the solution, thereby preparing a JAK2, JAK3, and TYK2 dilution buffer solution.
(§4) Each compound was dissolved in a 100% DMSO solution at a 50 uM concentration. This solution was reacted with reagents in wells on a 96-well plate to reach a final concentration of 1 uM. Detailed experimental methods for each kinase are described below.
(§5) After reaction for about 40 minutes at room temperature, the reaction was stopped by adding 5 uL of a 3% (v/v) phosphoric acid solution.
(§6) In Tables 5 and 6, the numbers in the “Example” column, which are identification numbers of the examples, indicate the compounds synthesized in the corresponding examples, the values in the “JAK1”, “JAK2”, “JAK3”, and “TYK2” columns represent kinase-phosphorylation inhibitory levels as a percentage (%) of the compounds synthesized in the corresponding examples at a 1 uM concentration. In Tables 5 and 6, negative values substantially indicate no inhibitory effect.
(§7) The inhibitory levels (% inhibition) represent a percentage of reduction in phosphorylation activity in each test group with respect to the phosphorylation activity of a corresponding kinase in a negative control group lacking any of the compounds synthesized in the examples. % inhibition=[(Scintillation value of Test compound non-treatment group−Scintillation value of Test compound treatment group)/(Scintillation value of Test compound non-treatment group)]×100

Human JAK2 = Human JAK2 (Homo sapiens (Human), UniProt O60674); assay: In vitro kinase inhibition test, JAK2 (33P-ATP filter scintillation); conditions: compound at 1 uM; read-out: JAK2 kinase-phosphorylation inhibitory level (% inhibition)
Chain of Human JAK2 (O60674 whole entry): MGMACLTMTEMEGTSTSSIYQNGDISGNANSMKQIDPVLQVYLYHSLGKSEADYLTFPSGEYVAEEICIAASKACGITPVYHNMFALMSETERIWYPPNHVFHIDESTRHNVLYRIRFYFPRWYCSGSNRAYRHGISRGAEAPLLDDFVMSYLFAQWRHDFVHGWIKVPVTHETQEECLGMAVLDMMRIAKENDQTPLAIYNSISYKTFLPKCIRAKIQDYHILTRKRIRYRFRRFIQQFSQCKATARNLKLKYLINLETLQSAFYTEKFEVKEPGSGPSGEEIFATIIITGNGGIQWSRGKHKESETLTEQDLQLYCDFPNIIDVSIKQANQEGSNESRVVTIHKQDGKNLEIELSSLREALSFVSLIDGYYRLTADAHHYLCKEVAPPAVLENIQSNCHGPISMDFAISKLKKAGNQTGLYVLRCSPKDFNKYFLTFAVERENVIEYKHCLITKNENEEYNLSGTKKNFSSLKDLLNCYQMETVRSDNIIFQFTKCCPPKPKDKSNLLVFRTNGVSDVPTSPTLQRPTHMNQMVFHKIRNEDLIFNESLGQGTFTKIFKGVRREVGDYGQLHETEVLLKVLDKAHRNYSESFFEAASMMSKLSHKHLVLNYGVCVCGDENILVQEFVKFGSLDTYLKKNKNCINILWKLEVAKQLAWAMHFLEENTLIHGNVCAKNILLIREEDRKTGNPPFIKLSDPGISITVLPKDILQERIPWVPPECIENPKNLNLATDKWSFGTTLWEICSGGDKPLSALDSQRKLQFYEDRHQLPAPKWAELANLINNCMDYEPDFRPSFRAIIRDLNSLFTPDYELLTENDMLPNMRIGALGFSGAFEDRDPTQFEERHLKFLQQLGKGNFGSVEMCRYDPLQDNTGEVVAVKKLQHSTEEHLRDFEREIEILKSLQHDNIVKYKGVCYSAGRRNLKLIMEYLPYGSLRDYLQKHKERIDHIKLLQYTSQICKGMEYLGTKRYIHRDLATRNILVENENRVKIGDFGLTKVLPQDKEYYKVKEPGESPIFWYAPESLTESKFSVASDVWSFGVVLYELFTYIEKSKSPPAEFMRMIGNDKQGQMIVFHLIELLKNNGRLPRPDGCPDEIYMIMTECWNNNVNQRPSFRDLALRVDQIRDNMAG
Procedure: as §1, §2, §3, §4, §5, §6, §7

Human JAK1 = Human JAK1 (Homo sapiens (Human), UniProt P23458); assay: In vitro kinase inhibition test, JAK1 (33P-ATP filter scintillation); conditions: compound at 1 uM; read-out: JAK1 kinase-phosphorylation inhibitory level (% inhibition)
Chain of Human JAK1 (P23458 whole entry): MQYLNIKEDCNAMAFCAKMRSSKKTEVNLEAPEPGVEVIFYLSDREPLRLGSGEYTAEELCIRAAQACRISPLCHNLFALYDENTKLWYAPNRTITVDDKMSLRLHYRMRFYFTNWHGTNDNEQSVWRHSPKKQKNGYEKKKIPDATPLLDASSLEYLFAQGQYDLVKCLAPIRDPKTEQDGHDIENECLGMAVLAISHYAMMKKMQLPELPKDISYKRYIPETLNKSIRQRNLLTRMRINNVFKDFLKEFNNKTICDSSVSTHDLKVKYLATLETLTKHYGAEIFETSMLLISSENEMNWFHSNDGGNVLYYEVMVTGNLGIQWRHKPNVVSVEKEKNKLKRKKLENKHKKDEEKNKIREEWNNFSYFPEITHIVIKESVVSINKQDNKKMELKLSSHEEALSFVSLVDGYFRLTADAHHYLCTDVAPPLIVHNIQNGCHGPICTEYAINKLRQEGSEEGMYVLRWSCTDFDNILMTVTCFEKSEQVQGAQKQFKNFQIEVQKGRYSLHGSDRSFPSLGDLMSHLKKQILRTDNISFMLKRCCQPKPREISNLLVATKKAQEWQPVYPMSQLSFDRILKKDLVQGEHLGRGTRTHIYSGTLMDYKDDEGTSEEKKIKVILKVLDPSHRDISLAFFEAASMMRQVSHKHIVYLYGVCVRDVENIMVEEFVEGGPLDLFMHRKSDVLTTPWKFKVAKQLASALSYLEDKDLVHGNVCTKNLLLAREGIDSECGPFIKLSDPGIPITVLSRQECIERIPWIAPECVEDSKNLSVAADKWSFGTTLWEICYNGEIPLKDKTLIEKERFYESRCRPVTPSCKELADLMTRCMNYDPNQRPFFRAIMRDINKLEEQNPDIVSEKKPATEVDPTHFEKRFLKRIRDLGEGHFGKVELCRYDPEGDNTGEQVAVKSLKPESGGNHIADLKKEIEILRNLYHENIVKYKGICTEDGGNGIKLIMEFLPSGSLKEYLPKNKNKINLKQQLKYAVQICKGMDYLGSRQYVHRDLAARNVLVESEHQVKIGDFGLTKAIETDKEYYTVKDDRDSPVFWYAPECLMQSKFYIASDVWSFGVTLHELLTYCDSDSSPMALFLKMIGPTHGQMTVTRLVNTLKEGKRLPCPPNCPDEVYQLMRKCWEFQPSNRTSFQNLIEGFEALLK
Procedure: as §1, §2
Tris(hydroxymethyl)aminomethane (TRIS) and ethylenediaminetetraacetic acid (EDTA) were dissolved in distilled water at a concentration of 20 mM and 0.2 mM, respectively, and 100 uL of β-mercaptoethanol, 10 uL of Brij-35™, and 5 mL of glycerol, each per 100 mL of the solution, were added to the solution, thereby preparing a JAK1 dilution buffer solution.
as §4
After reaction for about 40 minutes at room temperature, the reaction was stopped by adding 5 uL of a 3% (v/v) phosphoric acid solution. […] The methanol drying is a drying process using an azeotropic effect, wherein methanol is added into an aqueous solution for drying.
as §6, §7

Human JAK3 = Human JAK3 (Homo sapiens (Human), UniProt P52333); assay: In vitro kinase inhibition test, JAK3 (33P-ATP filter scintillation); conditions: compound at 1 uM; read-out: JAK3 kinase-phosphorylation inhibitory level (% inhibition)
Chain of Human JAK3 (P52333 whole entry): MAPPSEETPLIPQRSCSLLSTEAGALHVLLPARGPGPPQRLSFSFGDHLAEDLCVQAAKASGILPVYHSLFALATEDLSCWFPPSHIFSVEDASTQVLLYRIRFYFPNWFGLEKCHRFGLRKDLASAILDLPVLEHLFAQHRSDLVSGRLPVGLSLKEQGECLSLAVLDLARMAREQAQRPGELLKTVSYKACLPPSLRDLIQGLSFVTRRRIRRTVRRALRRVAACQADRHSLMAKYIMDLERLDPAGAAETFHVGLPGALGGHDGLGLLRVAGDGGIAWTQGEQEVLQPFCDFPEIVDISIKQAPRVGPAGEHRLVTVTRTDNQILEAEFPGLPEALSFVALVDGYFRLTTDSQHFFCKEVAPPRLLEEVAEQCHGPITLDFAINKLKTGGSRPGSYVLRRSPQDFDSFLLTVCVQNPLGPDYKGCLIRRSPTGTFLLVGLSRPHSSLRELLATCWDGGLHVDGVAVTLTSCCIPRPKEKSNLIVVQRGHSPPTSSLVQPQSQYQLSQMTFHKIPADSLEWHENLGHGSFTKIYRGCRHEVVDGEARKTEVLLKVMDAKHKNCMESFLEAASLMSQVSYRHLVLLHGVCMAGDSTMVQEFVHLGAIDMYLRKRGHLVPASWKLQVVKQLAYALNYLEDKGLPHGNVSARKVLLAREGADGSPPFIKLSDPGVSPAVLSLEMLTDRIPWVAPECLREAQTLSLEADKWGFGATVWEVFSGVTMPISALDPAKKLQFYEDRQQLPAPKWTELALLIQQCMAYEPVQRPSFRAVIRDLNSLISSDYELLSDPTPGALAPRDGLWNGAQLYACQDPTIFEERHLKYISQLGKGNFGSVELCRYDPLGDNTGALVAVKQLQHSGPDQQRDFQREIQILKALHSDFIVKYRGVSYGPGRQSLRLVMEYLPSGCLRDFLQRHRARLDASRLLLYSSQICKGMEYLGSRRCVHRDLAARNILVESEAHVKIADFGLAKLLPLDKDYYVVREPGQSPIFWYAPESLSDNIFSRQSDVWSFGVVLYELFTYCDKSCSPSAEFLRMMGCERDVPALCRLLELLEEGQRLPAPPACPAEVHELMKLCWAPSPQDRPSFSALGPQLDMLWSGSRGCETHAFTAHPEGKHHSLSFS
Procedure: as §1, §2, §3, §4, §5, §6, §7

Chain of Human TYK2 (P29597 whole entry): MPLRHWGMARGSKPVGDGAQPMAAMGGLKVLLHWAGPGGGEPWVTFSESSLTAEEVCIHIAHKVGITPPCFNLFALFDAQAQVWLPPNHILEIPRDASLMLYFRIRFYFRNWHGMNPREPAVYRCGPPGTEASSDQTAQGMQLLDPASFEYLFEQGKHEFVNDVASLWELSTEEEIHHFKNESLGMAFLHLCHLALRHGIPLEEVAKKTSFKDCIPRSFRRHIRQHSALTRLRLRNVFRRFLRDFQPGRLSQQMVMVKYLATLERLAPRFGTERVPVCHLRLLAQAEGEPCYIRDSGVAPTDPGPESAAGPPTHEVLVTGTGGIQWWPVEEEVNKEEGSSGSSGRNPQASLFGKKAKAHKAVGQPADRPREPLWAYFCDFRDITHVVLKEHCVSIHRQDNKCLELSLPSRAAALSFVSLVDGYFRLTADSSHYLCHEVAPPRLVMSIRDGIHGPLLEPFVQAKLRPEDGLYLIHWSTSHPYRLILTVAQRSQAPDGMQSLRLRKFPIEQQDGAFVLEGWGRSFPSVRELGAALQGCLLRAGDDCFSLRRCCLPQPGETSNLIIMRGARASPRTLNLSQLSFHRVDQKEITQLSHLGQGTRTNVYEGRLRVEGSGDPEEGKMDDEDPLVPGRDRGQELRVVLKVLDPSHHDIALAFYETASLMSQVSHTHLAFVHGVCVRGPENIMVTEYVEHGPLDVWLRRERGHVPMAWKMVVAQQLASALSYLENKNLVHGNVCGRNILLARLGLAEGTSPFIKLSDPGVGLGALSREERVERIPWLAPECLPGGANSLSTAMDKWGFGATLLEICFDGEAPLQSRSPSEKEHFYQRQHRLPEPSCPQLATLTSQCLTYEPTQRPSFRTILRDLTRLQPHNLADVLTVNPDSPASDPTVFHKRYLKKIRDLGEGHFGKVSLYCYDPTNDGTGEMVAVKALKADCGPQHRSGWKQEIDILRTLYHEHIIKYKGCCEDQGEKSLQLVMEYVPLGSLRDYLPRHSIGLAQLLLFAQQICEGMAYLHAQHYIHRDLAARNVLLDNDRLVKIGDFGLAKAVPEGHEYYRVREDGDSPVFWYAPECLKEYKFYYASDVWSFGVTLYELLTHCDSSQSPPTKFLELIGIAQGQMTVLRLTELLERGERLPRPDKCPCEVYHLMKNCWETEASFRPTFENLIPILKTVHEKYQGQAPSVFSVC

Row | SMILES | inhibition at 1 µM (Human TYK2) | inhibition at 1 µM (Human JAK2) | inhibition at 1 µM (Human JAK1) | inhibition at 1 µM (Human JAK3)
1 | CC(C)C(=O)N1C[C@H](N(C)c2ncnc3[nH]ccc23)C2(CC2)C1 [Example 3, (R)-2-methyl-1-(7-(methyl(7H-pyrrolo[2,3-d]pyrimidin-4-yl)amino)-5-azaspiro[2.4]heptan-5-yl)propan-1-one] | 49% | 25% | 83% | 16%
2 | CN(c1ncnc2[nH]ccc12)[C@H]1CN(S(=O)(=O)C(F)(F)F)CC12CC2 [Example 32, (R)-N-methyl-N-(5-((trifluoromethyl)sulfonyl)-5-azaspiro[2.4]heptan-7-yl)-7H-pyrrolo[2,3-d]pyrimidin-4-amine] | 86% | 68% | 97% | 59%
3 | CN(c1ncnc2[nH]ccc12)[C@H]1CN(C(=O)c2ccncc2)CC12CC2 [Example 14, (R)-(7-(methyl(7H-pyrrolo[2,3-d]pyrimidin-4-yl)amino)-5-azaspiro[2.4]heptan-5-yl)(pyridin-4-yl)methanone] | 15% | -14% | 84% | 12%
4 | CN(c1ncnc2[nH]ccc12)[C@H]1CN(S(=O)(=O)c2ccc(C#N)cc2)CC12CC2 [Example 42, (R)-4-((7-(methyl(7H-pyrrolo[2,3-d]pyrimidin-4-yl)amino)-5-azaspiro[2.4]heptan-5-yl)sulfonyl)benzonitrile] | 68% | 49% | 97% | 33%
5 | CCS(=O)(=O)N1C[C@H](N(C)c2ncnc3[nH]ccc23)C2(CC2)C1 [Example 33, (R)-N-(5-(ethylsulfonyl)-5-azaspiro[2.4]heptan-7-yl)-N-methyl-7H-pyrrolo[2,3-d]pyrimidin-4-amine] | 88% | 84% | 98% | 70%
6 | CN(c1ncnc2[nH]ccc12)[C@H]1CN(C(=O)c2ccccc2C(F)(F)F)CC12CC2 [Example 17, (R)-(7-(methyl(7H-pyrrolo[2,3-d]pyrimidin-4-yl)amino)-5-azaspiro[2.4]heptan-5-yl)(2-(trifluoromethyl)phenyl)methanone] | 39% | -14% | 65% | -1%
7 | Cc1cccc(S(=O)(=O)N2C[C@H](N(C)c3ncnc4[nH]ccc34)C3(CC3)C2)c1 [Example 46, (R)-N-methyl-N-(5-(m-tolylsulfonyl)-5-azaspiro[2.4]heptan-7-yl)-7H-pyrrolo[2,3-d]pyrimidin-4-amine] | 92% | 81% | 98% | 62%
8 | CN(c1ncnc2[nH]ccc12)C1CN(S(=O)(=O)CCN)CC12CC2 (stereo not drawn) [Example 63, N-(5-((2-aminoethyl)sulfonyl)-5-azaspiro[2.4]heptan-7-yl)-N-methyl-7H-pyrrolo[2,3-d]pyrimidin-4-amine] | 29% | 43% | 91% | 7%
9 | CN(c1ncnc2[nH]ccc12)[C@H]1CN(C(=O)Nc2ccccc2)CC12CC2 [Example 23, (R)-7-(methyl(7H-pyrrolo[2,3-d]pyrimidin-4-yl)amino)-N-phenyl-5-azaspiro[2.4]heptane-5-carboxamide] | 78% | 52% | 98% | 50%
10 | CN(c1ncnc2[nH]ccc12)C1CN(C(=S)CC#N)CC12CC2 (stereo not drawn) [Example 60, 3-(7-(methyl(7H-pyrrolo[2,3-d]pyrimidin-4-yl)amino)-5-azaspiro[2.4]heptan-5-yl)-3-thioxopropanenitrile] | 0% | -3% | 96% | -14%
11 | CNC(=O)CC(=O)N1C[C@H](N(C)c2ncnc3[nH]ccc23)C2(CC2)C1 [Example 8, (R)-N-methyl-3-(7-(methyl(7H-pyrrolo[2,3-d]pyrimidin-4-yl)amino)-5-azaspiro[2.4]heptan-5-yl)-3-oxopropanamide] | 11% | -7% | 61% | 3%
12 | CN(c1ncnc2[nH]ccc12)[C@H]1CN(C(=O)Nc2ccc(F)cc2)CC12CC2 [Example 24, (R)-N-(4-fluorophenyl)-7-(methyl(7H-pyrrolo[2,3-d]pyrimidin-4-yl)amino)-5-azaspiro[2.4]heptane-5-carboxamide] | 47% | 6% | 94% | 48%
13 | COc1ccc(S(=O)(=O)N2C[C@H](N(C)c3ncnc4[nH]ccc34)C3(CC3)C2)cc1 [Example 47, (R)-N-(5-((4-methoxyphenyl)sulfonyl)-5-azaspiro[2.4]heptan-7-yl)-N-methyl-7H-pyrrolo[2,3-d]pyrimidin-4-amine] | 71% | 69% | 99% | 39%
14 | CN(c1ncnc2[nH]ccc12)[C@H]1CN(S(=O)(=O)N2CCCCC2)CC12CC2 [Example 50, (R)-N-methyl-N-(5-(piperidin-1-ylsulfonyl)-5-azaspiro[2.4]heptan-7-yl)-7H-pyrrolo[2,3-d]pyrimidin-4-amine] | 81% | 56% | 98% | 60%
15 | CN(c1ncnc2[nH]ccc12)[C@@H]1CN(S(=O)(=O)c2ccccc2)CC12CC2 [Example 72, (S)-N-methyl-N-(5-(phenylsulfonyl)-5-azaspiro[2.4]heptan-7-yl)-7H-pyrrolo[2,3-d]pyrimidin-4-amine] | 28% | 10% | 55% | -1%
16 | CCCS(=O)(=O)N1C[C@H](N(C)c2ncnc3[nH]ccc23)C2(CC2)C1 [Example 35, (R)-N-methyl-N-(5-(propylsulfonyl)-5-azaspiro[2.4]heptan-7-yl)-7H-pyrrolo[2,3-d]pyrimidin-4-amine] | 89% | 78% | 99% | 77%
17 | CNC(=O)CC(=O)N1C[C@@H](N(C)c2ncnc3[nH]ccc23)C2(CC2)C1 [Example 67, (S)-N-methyl-3-(7-(methyl(7H-pyrrolo[2,3-d]pyrimidin-4-yl)amino)-5-azaspiro[2.4]heptan-5-yl)-3-oxopropanamide] | -4% | -7% | 5% | 0%
18 | CN(c1ncnc2[nH]ccc12)[C@H]1CN(C(=O)C2CC2)CC12CC2 [Example 9, (R)-cyclopropyl(7-(methyl(7H-pyrrolo[2,3-d]pyrimidin-4-yl)amino)-5-azaspiro[2.4]heptan-5-yl)methanone] | 70% | 10% | 90% | 13%
19 | CN(c1ncnc2[nH]ccc12)[C@H]1CN(C(=O)NC2CCCCC2)CC12CC2 [Example 22, (R)-N-cyclohexyl-7-(methyl(7H-pyrrolo[2,3-d]pyrimidin-4-yl)amino)-5-azaspiro[2.4]heptane-5-carboxamide] | 15% | -5% | 90% | 16%
20 | CC(=O)NCC(=O)N1C[C@H](N(C)c2ncnc3[nH]ccc23)C2(CC2)C1 [Example 7, (R)-N-(2-(7-(methyl(7H-pyrrolo[2,3-d]pyrimidin-4-yl)amino)-5-azaspiro[2.4]heptan-5-yl)-2-oxoethyl)acetamide] | 8% | -17% | 70% | 8%
21 | CN(c1ncnc2[nH]ccc12)C1CN(C(=O)CCN)CC12CC2 (stereo not drawn) [Example 58, 3-amino-1-(7-(methyl(7H-pyrrolo[2,3-d]pyrimidin-4-yl)amino)-5-azaspiro[2.4]heptan-5-yl)propan-1-one] | -4% | 2% | 34% | -9%
